The source of these data is patent US8338403B2, “Drug for improving hyperglycemia” (Morinaga Milk Industry Co., Ltd., priority 2004, dated 2012).

The subject of assay [1] is db/db mice (type-II diabetes model mice). Description: Test Example 1: hemoglobin A1c lowering action and hyperglycemic condition improving effect, 40-day oral administration. The class given is in vivo. Particulars: male db/db mice; for changes over time in random blood glucose levels / changes over time in fasting blood glucose levels / Hemoglobin A1c relative levels (%) 35th day from the administration: oral 1 mL of 1 μg/mL once a day; for changes over time in random blood glucose levels / changes over time in fasting blood glucose levels: 40 consecutive days; for changes over time in random blood glucose levels: FIG. 1; for changes over time in fasting blood glucose levels: after 15 hours of fasting, FIG. 2; for Hemoglobin A1c relative levels (%) 35th day from the administration: negative sample = 100. The procedure: This test was performed in order to evaluate the hemoglobin A1c lowering action and the hyperglycemic condition improving effect of the compounds of the present invention.
The compound 2 (4-methylcholest-7-en-3-ol), compound 3 (4-methylergost-7-en-3-ol) and compound 4 (4-methylstigmast-7-en-3-ol) produced in Preparation Example 1 mentioned above were used as test samples 1, 2 and 3, respectively.
Six-week old male db/db mice (purchased from Clea Japan, Inc.) were used as type-II diabetes model mice. These mice were divided into groups, each consisting of 7 animals. Each test sample was dissolved in DMSO, and the concentration was adjusted to 1 μg/mL with physiological saline. The final DMSO concentration was adjusted to 0.2%. […] The type-II diabetes model mice were orally administered with 1 mL of any of the test sample solutions once a day everyday with a sonde for 40 consecutive days. Further, β-sitosterol (Tama Biochemical Co., Ltd.) was administered to the model mice as a control sample 1. Fasting blood glucose levels and random blood glucose levels were measured over time by using Antisense II (Bayer-Sankyo Co., Ltd.). The fasting blood glucose levels were measured after 15 hours of fasting. Further, on the 35th day from the start of the administration, hemoglobin A1c levels were measured by using DCA 2000 (Bayer-Sankyo Co., Ltd.).

Assay [2] has the same test system. Description: Test Example 2: hemoglobin A1c lowering action compared with a clinical antidiabetic drug, 22-day oral administration. It is filed as in vivo. To be noted: male db/db mice; for Hemoglobin A1c relative levels (%) 23th day from the administration: oral 1 mL once a day for 22 days (test samples 1 μg/mL; control sample 2 7.5 μg/mL pioglitazone hydrochloride), negative sample = 100; for decrease in hemoglobin A1c level in comparison with the negative sample: oral once a day, 23rd day. How it is done: Six-week old male db/db mice (purchased from Clea Japan, Inc.) were used as type-II diabetes model mice. These mice were divided into groups, each consisting of 7 animals. Each test sample was dissolved in DMSO, and the concentration was adjusted to 1 μg/mL with physiological saline. The final DMSO concentration was adjusted to 0.2%. […] Further, as a control sample 2, ACTOS® tablets (Takeda Pharmaceutical Co., Ltd.) were ground in a mortar and dissolved in physiological saline so that the concentration of pioglitazone hydrochloride as the active ingredient should become 7.5 μg/mL.

Consider `CC[C@H](CC[C@@H](C)[C@H]1CC[C@H]2[C@@H]3CC=C4C[C@@H](O)CC[C@]4(C)[C@H]3CC[C@]12C)C(C)C` [control sample 1, β-sitosterol, reference compound], for which, in assay [1], the “changes over time in random blood glucose levels” value is recorded as “rapid increases were observed” and the “changes over time in fasting blood glucose levels” value was “rapid increases were observed”. The “Hemoglobin A1c relative levels (%) 35th day from the administration” value in assay [1] (35th day) is 94.8 ± 8.5%. Besides, in assay [1] (oral once a day, 35th day), the “decrease in hemoglobin A1c level in comparison with the negative sample” value (“decrease in hemoglobin A1c level” below) is “about 0.5%” and the “hemoglobin A1c lowering effect (in words)” value is reported as “almost no hemoglobin A1c lowering effect was observed”.
Consider `CC(C)CCCC(C)C1CCC2C3=CCC4C(C)C(O)CCC4(C)C3CCC21C` (stereo not shown) [test sample 1, 4-methylcholest-7-en-3-ol], for which, in assay [2], the “Hemoglobin A1c relative levels (%) 23th day from the administration” value is given as 89.9 ± 9.0% and the “decrease in hemoglobin A1c level” value was “about 11%”. In assay [1], the “changes over time in random blood glucose levels” value is on record as “effect of suppressing the increase in blood glucose levels was clearly observed” and the “changes over time in fasting blood glucose levels” value is reported as “effect of suppressing the increase in blood glucose levels was clearly observed”. For the same molecule, the “Hemoglobin A1c relative levels (%) 35th day from the administration” value in assay [1] (35th day) amounted to 80.2 ± 19.2%.
Regarding `CCC(CCC(C)C1CCC2C3=CCC4C(C)C(O)CCC4(C)C3CCC21C)C(C)C` (stereo not shown) [test sample 3, 4-methylstigmast-7-en-3-ol], the “Hemoglobin A1c relative levels (%) 23th day from the administration” value in assay [2] is recorded as 88.8 ± 9.0%. In assay [1], the “changes over time in random blood glucose levels” value is “effect of suppressing the increase in blood glucose levels was clearly observed” and the “changes over time in fasting blood glucose levels” value was “effect of suppressing the increase in blood glucose levels was clearly observed”. The “Hemoglobin A1c relative levels (%) 35th day from the administration” value in assay [1] (35th day) came to 77.8 ± 12.2%.
Consider `CC(C)C(C)CCC(C)C1CCC2C3=CCC4C(C)C(O)CCC4(C)C3CCC21C` (stereo not shown) [test sample 2, 4-methylergost-7-en-3-ol], for which, in assay [2], the “Hemoglobin A1c relative levels (%) 23th day from the administration” value amounted to 91.0 ± 6.7% and the “decrease in hemoglobin A1c level” value is given as “about 11%”. In addition, in assay [1], the “changes over time in random blood glucose levels” value is given as “effect of suppressing the increase in blood glucose levels was clearly observed” and the “changes over time in fasting blood glucose levels” value is reported as “effect of suppressing the increase in blood glucose levels was clearly observed”. Besides, in assay [1] (35th day), the “Hemoglobin A1c relative levels (%) 35th day from the administration” value was 82.7 ± 21.0%.
